Source: PMC10247784, “Physiological activation of human and mouse bitter taste receptors by bile acids” (Communications Biology, 2023)
Where “and” joins values, the source holds several entries; their conditions need not be identical. Equal values may be shown once.

Target: T1, human TAS2R1 (Homo sapiens, UniProt Q9NYW7)
T1 construct: expressed in transfected cells; host or cells: HEK293T-Gα16gust44
T1 sequence (Q9NYW7 1-299): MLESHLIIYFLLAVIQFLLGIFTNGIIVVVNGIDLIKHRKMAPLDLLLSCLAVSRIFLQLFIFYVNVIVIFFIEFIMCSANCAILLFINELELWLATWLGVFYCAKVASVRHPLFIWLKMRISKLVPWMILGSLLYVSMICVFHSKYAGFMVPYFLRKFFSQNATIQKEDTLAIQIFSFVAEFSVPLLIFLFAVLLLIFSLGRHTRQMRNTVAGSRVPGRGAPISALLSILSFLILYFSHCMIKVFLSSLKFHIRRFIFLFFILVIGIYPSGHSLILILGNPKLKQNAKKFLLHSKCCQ
Experiment: Calcium imaging assay (FLIPR), HEK293T-Gα16gust44 cells transfected with human TAS2R1
Type: cell-based
Outline: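 Bile acids from DMSO stocks are applied to dye-loaded cells one day after transient receptor transfection, and calcium-dependent fluorescence is recorded. Maximum signal is standardized to basal and normalized to buffer-only wells, with empty-vector signal subtracted.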

C[C@H](CCC(=O)O)[C@H]1CC[C@H]2[C@@H]3CC[C@@H]4C[C@H](O)CC[C@]4(C)[C@H]3CC[C@]12C [Lithocholic Acid, lithocholic acid]
Efficacy = maximal amplitude (ΔF/F) (TAS2R1, bile acids, mean): 0.1221
Efficacy (maximal amplitude ΔF/F), individual data points (TAS2R1, bile acids, single replicates, listed as LCA): 0.1505 and 0.1173 and 0.0984
RLU (Time 0 s): 0 RLU
RLU (Time 2.015 s): -14.5951 RLU
RLU (Time 4.015 s): -7.128 RLU
RLU (Time 6.015 s): 1.224 RLU
RLU (Time 8.015 s): 0.3531 RLU
RLU (Time 12.015 s): -16.4638 RLU
RLU (Time 14.015 s): -4.132 RLU
RLU (Time 16.015 s): -20.8125 RLU
RLU (Time 18.015 s): 1.1121 RLU
RLU (Time 18.796 s): 25.7864 RLU
RLU (Time 20.796 s): 69.0707 RLU
RLU (Time 22.796 s): 111.584 RLU
RLU (Time 24.796 s): 140.624 RLU
RLU (Time 26.796 s): 217.83 RLU
RLU (Time 28.796 s): 298.948 RLU
RLU (Time 30.796 s): 381.71 RLU
RLU (Time 32.796 s): 449.564 RLU
RLU (Time 34.796 s): 475.411 RLU
RLU (Time 36.796 s): 563.041 RLU
RLU (Time 38.796 s): 583.488 RLU
RLU (Time 40.796 s): 612.54 RLU
RLU (Time 42.796 s): 644.654 RLU
RLU (Time 44.796 s): 679.197 RLU
RLU (Time 46.796 s): 695.288 RLU
RLU (Time 48.796 s): 701.461 RLU
RLU (Time 50.796 s): 756.471 RLU
RLU (Time 52.796 s): 734.503 RLU
RLU (Time 54.796 s): 776.344 RLU
RLU (Time 56.796 s): 818.875 RLU
RLU (Time 58.796 s): 815.634 RLU
RLU (Time 60.796 s): 814.863 RLU
RLU (Time 62.796 s): 815.671 RLU
RLU (Time 64.796 s): 814.539 RLU
RLU (Time 66.796 s): 840.236 RLU
RLU (Time 68.796 s): 839.926 RLU
RLU (Time 70.796 s): 857.451 RLU
RLU (Time 72.796 s): 860.887 RLU
RLU (Time 74.796 s): 876.325 RLU
RLU (Time 76.796 s): 873.737 RLU
RLU (Time 78.796 s): 889.618 RLU
RLU (Time 80.796 s): 892.644 RLU
RLU (Time 82.796 s): 897.83 RLU
RLU (Time 84.796 s): 886.895 RLU
RLU (Time 86.796 s): 870.09 RLU
RLU (Time 88.796 s): 907.185 RLU
RLU (Time 90.796 s): 877.458 RLU
RLU (Time 92.796 s): 891.158 RLU
RLU (Time 94.796 s): 920.191 RLU
RLU (Time 96.796 s): 905.406 RLU
RLU (Time 98.796 s): 898.952 RLU
RLU (Time 100.796 s): 892.147 RLU
RLU (Time 102.796 s): 894.991 RLU
RLU (Time 104.796 s): 894.373 RLU
RLU (Time 106.796 s): 867.268 RLU
RLU (Time 108.796 s): 872.524 RLU
RLU (Time 110.796 s): 857.451 RLU
RLU (Time 112.796 s): 864.824 RLU
RLU (Time 114.796 s): 846.501 RLU
RLU (Time 116.796 s): 868.556 RLU
RLU (Time 118.796 s): 842.814 RLU
RLU (Time 120.796 s): 851.852 RLU
RLU (Time 122.796 s): 861.523 RLU
RLU (Time 124.796 s): 851.498 RLU
RLU (Time 126.796 s): 820.705 RLU
RLU (Time 128.796 s): 833.006 RLU
RLU (Time 130.796 s): 811.797 RLU
RLU (Time 132.796 s): 786.781 RLU
RLU (Time 134.796 s): 809.512 RLU
RLU (Time 136.796 s): 797.52 RLU
RLU (Time 137.562 s): 816.516 RLU
RLU (Time 143.562 s): 785.521 RLU
RLU (Time 149.562 s): 770.713 RLU
RLU (Time 155.562 s): 645 RLU
RLU (Time 161.562 s): 650.189 RLU
RLU (Time 167.562 s): 602.288 RLU
RLU (Time 173.562 s): 588.477 RLU
RLU (Time 179.562 s): 570.66 RLU
RLU (Time 185.562 s): 562.77 RLU
RLU (Time 191.562 s): 515.911 RLU
RLU (Time 197.562 s): 487.382 RLU
RLU (Time 203.562 s): 468.151 RLU
RLU (Time 209.562 s): 433.685 RLU
RLU (Time 215.562 s): 406.858 RLU
RLU (Time 221.562 s): 386.034 RLU
RLU (Time 227.562 s): 427.313 RLU
RLU (Time 233.562 s): 409.48 RLU
RLU (Time 239.562 s): 419.888 RLU
RLU (Time 245.562 s): 384.802 RLU
RLU (Time 293.562 s): 250.547 RLU
RLU (Time 299.562 s): 240.784 RLU
RLU (calcium trace, sheet TAS2R1, Time 305.562 s): 255.305 RLU
RLU (calcium trace, sheet TAS2R1, Time 311.562 s): 251.175 RLU
RLU (calcium trace, sheet TAS2R1, Time 317.562 s): 242.237 RLU
RLU (calcium trace, sheet TAS2R1, Time 323.562 s): 237.346 RLU
RLU (calcium trace, sheet TAS2R1, Time 329.562 s): 210.072 RLU
RLU (calcium trace, sheet TAS2R1, Time 335.562 s): 207.541 RLU
RLU (calcium trace, sheet TAS2R1, Time 341.562 s): 224.802 RLU
RLU (calcium trace, sheet TAS2R1, Time 347.562 s): 199.834 RLU
RLU (calcium trace, sheet TAS2R1, Time 353.562 s): 189.761 RLU
RLU (calcium trace, sheet TAS2R1, Time 359.562 s): 182.753 RLU
Activation threshold concentration TAS2R1 (lowest concentration with significantly increased fluorescence vs empty vector (p < 0.01)): 0.3 µM and 0.30 µM
